These results are taken from ChEMBL document CHEMBL1149582, “Synthesis of penaresidin derivatives and its biological activity” (Bioorg Med Chem, 2007).

The test system of one assay is A549. Kind of assay: Cytotoxicity against human A549 cells. In kind it is functional, cell-based.
The test system of another assay is L1210. Kind of assay: Cytotoxicity against mouse L1210 cells. In kind it is functional, cell-based.
The subject of the next assay is KB. Kind of assay: Cytotoxicity against human KB cells. In kind it is functional, cell-based.
The nature of assay [1]: Cytotoxicity against human […] cells. In kind it is functional, cell-based.
A further assay relates to Bacillus subtilis. Kind of assay: Antibacterial activity against Bacillus subtilis […]. In kind it is functional.
For the next assay, the system named is Candida albicans. Kind of assay: Antibacterial activity against Candida albicans ATCC 90028. In kind it is functional.
Another assay has as its system Aspergillus niger. Kind of assay: Antibacterial activity against Aspergillus niger IFM 5368. In kind it is functional.
In the next assay the test system is Staphylococcus aureus. Kind of assay: Antibacterial activity against Staphylococcus aureus 209P. In kind it is functional.
The next assay has as its system Cryptococcus neoformans. Kind of assay: Antibacterial activity against Cryptococcus neoformans IFM 46914. In kind it is functional.
The test system of another assay is Micrococcus luteus. Kind of assay: Antibacterial activity against Micrococcus luteus IFM 2066. In kind it is functional.
For another assay, the system named is Escherichia coli. Kind of assay: Antibacterial activity against Escherichia coli ATCC 25922. In kind it is functional.

Values after ≈ are worked out from the molar mass of the structure shown.

As a reminder, the IC50 is the concentration needed to halve the response being measured. Regarding `CCCCCCCCCCCCCC[C@H]1N[C@@H](CO)[C@H]1O`, the 50% inhibitory concentration (IC50) in the assay with A549 was 1.38 µg/mL (≈ 4.61 µM); in the assay with L1210, over 10 µg/mL; with KB it was over 10 µg/mL; in assay [1], 1.65 µg/mL (≈ 5.51 µM).
The term MIC denotes the lowest concentration found to suppress growth. For `CCCCCCCCCCCCCC[C@@H]1N[C@@H](CO)[C@@H]1O`, the IC50 in the assay on A549 came out at 0.34 µg/mL (≈ 1.14 µM); with L1210, 4.5 µg/mL (≈ 15 µM); with KB, 3.4 µg/mL (≈ 11.4 µM); in assay [1] it was 0.56 µg/mL (≈ 1.87 µM). Moreover, the minimal inhibitory concentration (MIC) is 4.18 µg/mL (≈ 14 µM) with Bacillus subtilis; over 16.7 µg/mL in the assay with Candida albicans; over 16.7 µg/mL against Aspergillus niger; 8.35 µg/mL (≈ 27.9 µM) in the assay with Staphylococcus aureus; over 16.7 µg/mL against Cryptococcus neoformans; 1.84 µg/mL (≈ 6.14 µM) against Micrococcus luteus. The same molecule came in with an MIC in the assay on Escherichia coli of over 16.7 µg/mL.
Take `CC(C)CC[C@H](O)CCCCCCCCC[C@@H]1N[C@@H](CO)[C@@H]1O`: the IC50 in the assay with A549 is over 2 µg/mL; with L1210 it was 2.9 µg/mL (≈ 8.8 µM); with KB, over 10 µg/mL; in [1] it was over 2 µg/mL. Further, the MIC in the assay with Bacillus subtilis, in the assay with Candida albicans, against Aspergillus niger, in the assay with Staphylococcus aureus, with Cryptococcus neoformans and in the assay on Micrococcus luteus was over 16.7 µg/mL each time. In the assay on Escherichia coli, this molecule showed an MIC of over 16.7 µg/mL.
Regarding `CCCCCCCCCCCCCC[C@@H]1N[C@H](CO)[C@@H]1O`, the IC50 in the assay on A549 is over 2 µg/mL; with L1210, 7.5 µg/mL (≈ 25 µM); with KB, over 10 µg/mL; in [1] it was over 2 µg/mL. Moreover, the minimal inhibitory concentration (MIC) with Bacillus subtilis, in the assay on Candida albicans, against Aspergillus niger, with Staphylococcus aureus, in the assay on Cryptococcus neoformans and against Micrococcus luteus was over 16.7 µg/mL throughout. This molecule also had an MIC in the assay on Escherichia coli of over 16.7 µg/mL.
With `CCCCCCCCCCCCCC[C@@H]1N[C@H](CO)[C@H]1O`, the IC50 in the assay on A549 was 1.97 µg/mL (≈ 6.58 µM); in the assay on L1210, 4.5 µg/mL (≈ 15 µM); in the assay on KB it was over 10 µg/mL; in [1] it was 0.79 µg/mL (≈ 2.64 µM). The minimum inhibitory concentration (MIC) is 16.7 µg/mL (≈ 55.8 µM) in the assay on Bacillus subtilis; over 16.7 µg/mL in the assay with Candida albicans; over 16.7 µg/mL in the assay with Aspergillus niger; over 16.7 µg/mL against Staphylococcus aureus; over 16.7 µg/mL in the assay with Cryptococcus neoformans; 8.35 µg/mL (≈ 27.9 µM) against Micrococcus luteus. Further, in the assay on Escherichia coli, the MIC was over 16.7 µg/mL.
Take `CCCCCCCCCCCCCC[C@H]1N[C@@H](CO)[C@@H]1O`: the half-maximal inhibitory concentration (IC50) in the assay on A549 stood at 0.22 µg/mL (≈ 0.735 µM); in the assay with L1210, 1.6 µg/mL (≈ 5.34 µM); in the assay on KB, 3.2 µg/mL (≈ 10.7 µM); in assay [1], 0.17 µg/mL (≈ 0.568 µM). Further, the MIC in the assay on Bacillus subtilis was 4.18 µg/mL (≈ 14 µM); against Candida albicans it was over 16.7 µg/mL; in the assay on Aspergillus niger it was over 16.7 µg/mL; in the assay with Staphylococcus aureus it was 8.35 µg/mL (≈ 27.9 µM); against Cryptococcus neoformans, over 16.7 µg/mL; with Micrococcus luteus, 4.18 µg/mL (≈ 14 µM). Besides, the minimal inhibitory concentration (MIC) in the assay on Escherichia coli is 8.35 µg/mL (≈ 27.9 µM).
For `CCCCCCCCCCCCCC[C@H]1N[C@H](CO)[C@H]1O`, the IC50 in the assay with A549 is over 2 µg/mL; in the assay with L1210 it was 4.5 µg/mL (≈ 15 µM); with KB, 6 µg/mL (≈ 20 µM); in assay [1], 1.23 µg/mL (≈ 4.11 µM). For the same molecule, the minimal inhibitory concentration (MIC) was 8.35 µg/mL (≈ 27.9 µM) in the assay on Bacillus subtilis; over 16.7 µg/mL against Candida albicans; over 16.7 µg/mL against Aspergillus niger; 16.7 µg/mL (≈ 55.8 µM) in the assay on Staphylococcus aureus; over 16.7 µg/mL in the assay with Cryptococcus neoformans; 4.18 µg/mL (≈ 14 µM) in the assay with Micrococcus luteus. Besides, in the assay on Escherichia coli, the MIC was over 16.7 µg/mL.
